What was measured:
[1] = test system: Hepcidin (Hamp) mRNA in HepG2 cells; experiment: Hepcidin mRNA expression in HepG2 cells by qRT-PCR; type: cell-based, human; details: for hepcidin mRNA expression increase / hepcidin −ΔΔCt ±SD: HepG2 cells, 50 ng/ml each, peak levels 4 hours after treatment
Method: (§1) Human hepatoma cells (HepG2; ATCC) were cultured in high glucose Dulbecco's Modified Eagle Media (DMEM) supplemented with 10% fetal calf serum (FCS) and antibiotics. For stimulation experiments, cells were transferred to 6-well dishes and starved with DMEM containing 0.1% FCS for 5 hours before exposure to IL-6 (50 ng/ml; R&D Systems) and/or activin A (50 ng/ml; R&D) or activin B (50 ng/ml; R&D) for 1 h30, 2 h30, 4 h, 6 h, and 24 h. The pharmacological inhibitor LDN-193189 (100 nM; Axon Medchem), ALK2-Fc (1 μg/mL; R&D), or ALK3-Fc (1 μg/mL; R&D) were added 30 min prior to activin B exposure.
(§2) Total RNA from mouse liver, human hepatoma cells, or mouse primary hepatocytes, was extracted using Trizol (Invitrogen). cDNA was synthesized using MMLV-RT (Promega). Quantitative PCR (Q-PCR) reactions were prepared with LightCycler® 480 DNA SYBR Green I Master reaction mix (Roche Diagnostics) and run in duplicate on a LightCycler® 480 Instrument (Roche Diagnostics).
(§3) Means of −ΔCt (i.e., Ct Hprt−Ct target)±standard deviation (SD) were calculated for the different groups of mice. Means of −ΔCt values between LPS-challenged and unchallenged mice were compared by Student's t-tests. Because, in addition to inflammation, mouse genotype (wild-type versus Bmp6−/−) may also affect mean −ΔCt values, we used two-way analysis of variance (ANOVA) to test for the effect of both factors and their interaction. Differences between mean −ΔCt at a specific time point after LPS administration and mean −ΔCt at time 0 (−ΔΔCt±SD) were also calculated and point estimations of fold changes induced by LPS administration obtained by raising 2 to the power −ΔΔCt (Yuan et al., 2006). For HepG2 cells or mouse primary hepatocytes, −ΔΔCt values (i.e., −ΔCt treatment+ΔCt vehicle)±SD were obtained for each condition and means of −ΔΔCt were compared to 0 by Student's t-tests.

[2] = test system: SMAD1/5/8 phosphorylation in HepG2 cells; experiment: SMAD1/5/8 phosphorylation in HepG2 cells by immunoblot; type: cell-based, human; details: 2 h30, 4 or 6 hours; for SMAD1/5/8 phosphorylation: HepG2, 50 ng/ml
Method: as §1
(§4) Livers were homogenized in a FastPrep®-24 Instrument (MP Biomedicals) for 15 sec at 4 m/s. The lysis buffer (50 mM Tris-HCl, pH 8, 150 mM NaCl, 5 mM EDTA, pH 8, 0.1% NP-40) included inhibitors of proteases (complete protease inhibitor cocktail, Roche Applied Science) and of phosphatases (phosphatase inhibitor cocktail 2, Sigma-Aldrich). Liver proteins were quantified using the Bio-Rad Protein Assay kit. HepG2 cells and mouse primary hepatocytes were lysed in RIPA buffer (Sigma-Aldrich) supplemented with protease and phosphatase inhibitors, and proteins were quantified using the Bio-Rad DC Protein Assay.
Fresh protein extracts were diluted in Laemmli buffer (Sigma-Aldrich), incubated for 5 minutes at 95° C., and subjected to SDS-PAGE. Proteins were then transferred to PVDF membranes (Millipore). Membranes were blocked with 5% of dry milk in TBS-T buffer (10 mM Tris-HCl, pH 7.5, 150 mM NaCl, 0.15% Tween 20). They were incubated with rabbit antibodies to phospho-Smad1/5/8 (Cell Signaling Technology) or phospho-Stat3 (Cell Signaling) at 4° C. overnight, and washed with TBS-T buffer. Following incubation with a goat anti-rabbit IgG antibody (Cell Signaling) conjugated to horseradish peroxidase (HRP), enzyme activity was visualized by an ECL-based detection system (Millipore). Blots were then stripped and reprobed with rabbit antibodies to Smad5 (Epitomics) or Stat3 (Cell Signaling) 2 hours at RT before incubation with the goat anti-rabbit HRP-linked antibody.

[3] = test system: Hepcidin (Hamp) mRNA in mouse primary hepatocytes; experiment: Hepcidin mRNA expression in mouse primary hepatocytes by qRT-PCR; type: cell-based; details: for hepcidin mRNA increase / hepcidin −ΔΔCt ±SD: primary hepatocytes from Bmp6-deficient mice, 50 ng/ml each, 2 h30
Method: (§5) Mouse primary hepatocytes were isolated from ten-week-old Bmp6-deficient mice using a collagenase perfusion protocol (Lin et al., 2007). The viable hepatocyte population was further purified by a Percoll gradient centrifugation. Hepatocytes were plated in 6-well collagen-coated plates at 7×10^5 cells per well and cultured in DMEM supplemented with 10% FCS and antibiotics for 18 hours. After serum starvation for 5 hours in 0.1% FCS, hepatocytes were stimulated with IL-6 (50 ng/ml) and/or activin B (50 ng/ml), or vehicle, in the presence or absence of LDN-193189 (l μM), and RNA was harvested 1, 2, 3, and 4 hours later.
as §2, §3

[4] = test system: Smad1/5/8 phosphorylation in mouse primary hepatocytes; experiment: Smad1/5/8 phosphorylation in mouse primary hepatocytes by immunoblot; type: cell-based
Method: as §5, §4
(§6) Fresh protein extracts were diluted in Laemmli buffer (Sigma-Aldrich), incubated for 5 minutes at 95° C., and subjected to SDS-PAGE. […]

BMP type I receptors = details: 100 nM; cited from earlier work
hepcidin expression = details: cultured hepatoma-derived cells, zebrafish, mouse, or rat; cited from earlier work
[5] = test system: STAT3 phosphorylation in HepG2 cells; experiment: STAT3 phosphorylation in HepG2 cells by immunoblot; type: cell-based, human; details: HepG2, 50 ng/ml
Method: as §1, §4
Fresh protein extracts were diluted in Laemmli buffer (Sigma-Aldrich), incubated for 5 minutes at 95° C., and subjected to SDS-PAGE. Proteins were then transferred to PVDF membranes (Millipore). […]

[6] = test system: Stat3 signaling in mouse primary hepatocytes; experiment: Stat3 signaling in mouse primary hepatocytes by immunoblot; type: cell-based; details: 50 ng/ml, 2 h30
Method: as §5, §4, §6

## c1ccc2c(-c3cnn4cc(-c5ccc(N6CCNCC6)cc5)cnc34)ccnc2c1 [LDN-193189, reference compound]
[1]; HepG2, 100 nM added 30 min before activin B (50 ng/ml), 2 h30, 4 or 6 hours after stimulation
  effect on induction of hepcidin gene expression by activin B: completely abolished
[2]; HepG2, 100 nM added 30 min before activin B (50 ng/ml)
  effect on Smad1/5/8 phosphorylation induced by activin B: completely abolished
[3]; mouse primary hepatocytes, 1 μM, activin B 50 ng/ml
  effect on upregulation of Hamp gene expression by activin B: prevented
[4]; 1 μM, activin B 50 ng/ml for 2 h30
  effect on Smad1/5/8 phosphorylation induced by activin B: prevented induction of Smad1/5/8 phosphorylation
BMP type I receptors
  activity of BMP type I receptors: inhibit activity of BMP type I receptors
Hepcidin expression
  induction of hepcidin expression by IL-6, turpentine, or group A streptococcal peptidoglycan-polysaccharide: blocks induction of hepcidin expression

## activin B
[1]
  hepcidin mRNA expression increase: about 13 fold
  hepcidin −ΔΔCt ±SD: 3.71±0.46
[2]
  SMAD1/5/8 phosphorylation: induces the phosphorylation of the SMAD effectors 1, 5 and 8
[3]
  hepcidin mRNA increase: about 7 fold
  hepcidin −ΔΔCt ±SD: 2.81±0.92
[4]; 50 ng/ml, 2 h30
  SMAD1/5/8 phosphorylation: induces

## activin A
[2]
  SMAD1/5/8 phosphorylation: not shared with activin A

## IL-6: interleukin-6 cytokine, R&D Systems
[1]
  hepcidin mRNA expression increase: about 6 fold
  hepcidin −ΔΔCt ±SD: 2.63±0.26
[5]
  STAT3 phosphorylation: induces STAT3 phosphorylation
[3]
  hepcidin mRNA increase: about 1.8 fold
  hepcidin −ΔΔCt ±SD: 0.82±0.24
[6]
  Stat3 signaling: strong activation of Stat3 signaling
